This note sets out measurements from patent US11987588B2, “Modulators of the beta-3 adrenergic receptor useful for the treatment or prevention of heart failure and disorders related thereto” (Arena Pharmaceuticals, Inc., priority 2017, dated 2024).

The test deals with Beta-3 Adrenergic Receptor (Homo sapiens (Human), UniProt P13945). In words: Homogeneous Time-Resolved Fluorescence (HTRF) cAMP antagonist assay, IC50 determination. As to conditions: CHO-K1 cells stably expressing recombinant receptor, isoproterenol at EC90. The test is classed as cell-based. The gist of the method:
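In this functional readout, recombinant CHO-K1 cells received compound, then isoproterenol at its EC90. After 1 h at room temperature, cAMP levels were determined by HTRF using an on-plate standard curve, and IC50 values were fitted.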
On the technique in general: TR-FRET usually uses a lanthanide donor and a delayed reading to cut background.

Sequence of Beta-3 Adrenergic Receptor (P13945 whole entry, species assumed): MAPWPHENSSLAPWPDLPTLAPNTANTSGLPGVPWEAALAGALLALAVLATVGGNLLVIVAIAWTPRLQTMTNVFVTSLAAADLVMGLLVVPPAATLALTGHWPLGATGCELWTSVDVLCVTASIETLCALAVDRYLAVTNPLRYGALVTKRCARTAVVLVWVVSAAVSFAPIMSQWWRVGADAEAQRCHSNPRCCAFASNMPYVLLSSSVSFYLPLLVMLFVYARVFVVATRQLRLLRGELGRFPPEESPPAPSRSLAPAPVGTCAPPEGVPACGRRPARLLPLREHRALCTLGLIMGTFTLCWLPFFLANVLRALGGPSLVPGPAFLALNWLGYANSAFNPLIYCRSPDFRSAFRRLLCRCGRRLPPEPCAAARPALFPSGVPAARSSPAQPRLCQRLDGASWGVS

For `CNS(=O)(=O)c1cccc(OC[C@@H](O)CN[C@H]2COC3(CCN(S(=O)(=O)c4cnc5c(c4)N(CCOC)CCO5)CC3)C2)c1` [Compound 471, 3-((S)-2-hydroxy-3-((R)-8-(1-(2-methoxyethyl)-2,3-dihydro-1H-pyrido[2,3-b][1,4]oxazin-7-ylsulfonyl)-1-oxa-8-azaspiro[4.5]decan-3-ylamino)propoxy)-N-methylbenzenesulfonamide], the IC50 (in general, the concentration at which inhibition is half-maximal) was 0.069 µM.
Next, `Cc1cc(S(=O)(=O)N2CCC3(CC2)CC(NC[C@H](O)COc2cccc(S(=O)(=O)N(C)C)c2)CO3)ccc1Br` (stereo partly drawn) [Compound 249, 3-((2S)-3-(8-(4-bromo-3-methylphenylsulfonyl)-1-oxa-8-azaspiro[4.5]decan-3-ylamino)-2-hydroxypropoxy)-N,N-dimethylbenzenesulfonamide]: 0.0295 µM; `CNS(=O)(=O)c1cccc(OC[C@@H](O)CNC2COC3(CCN(S(=O)(=O)c4cccc(-c5ccc(C)nc5)c4)CC3)C2)c1` (stereo partly drawn) [Compound 111, 3-((2S)-2-hydroxy-3-(8-(3-(6-methylpyridin-3-yl)phenylsulfonyl)-1-oxa-8-azaspiro[4.5]decan-3-ylamino)propoxy)-N-methylbenzenesulfonamide]: 0.0263 µM; `O=S(=O)(NC[C@H](O)CO)c1cccc(OC[C@@H](O)CNC2COC3(CCN(S(=O)(=O)c4ccc5ccccc5c4)CC3)C2)c1` (stereo partly drawn) [Compound 166, N—((S)-2,3-dihydroxypropyl)-3-((2S)-2-hydroxy-3-(8-(naphthalen-2-ylsulfonyl)-1-oxa-8-azaspiro[4.5]decan-3-ylamino)propoxy)benzenesulfonamide]: 0.143 µM.
The value for `CN1CCOc2ncc(S(=O)(=O)N3CCC4(CC3)C[C@@H](NC[C@H](O)COc3cccc(S(=O)(=O)N[C@H]5CCCC[C@@H]5O)c3)CO4)cc21` [Compound 431, 3-((S)-2-hydroxy-3-((R)-8-(1-methyl-2,3-dihydro-1H-pyrido[2,3-b][1,4]oxazin-7-ylsulfonyl)-1-oxa-8-azaspiro[4.5]decan-3-ylamino)propoxy)-N-((1S,2S)-2-hydroxycyclohexyl)benzenesulfonamide] was 1.16 µM; that for `CNS(=O)(=O)c1cccc(OC[C@@H](O)CN[C@H]2COC3(CCN(S(=O)(=O)c4cnc5cc(F)ccc5c4O)CC3)C2)c1` [Compound 539, 3-((S)-3-((R)-8-(7-fluoro-4-hydroxyquinolin-3-ylsulfonyl)-1-oxa-8-azaspiro[4.5]decan-3-ylamino)-2-hydroxypropoxy)-N-methylbenzenesulfonamide] was 0.026 µM; that for `Cc1c[nH]c2ncc(S(=O)(=O)N3CCC4(CC3)C[C@@H](NC[C@H](O)COc3cccc(S(N)(=O)=O)c3)CO4)cc12` [Compound 558, 3-((S)-2-hydroxy-3-((R)-8-(3-methyl-1H-pyrrolo[2,3-b]pyridin-5-ylsulfonyl)-1-oxa-8-azaspiro[4.5]decan-3-ylamino)propoxy)benzenesulfonamide] was 0.0136 µM.
`CNS(=O)(=O)c1cccc(OC[C@@H](O)CNC2COC3(CCN(S(=O)(=O)c4cc(Cl)ccc4F)CC3)C2)c1` (stereo partly drawn) [Compound 144, 3-((2S)-3-(8-(5-chloro-2-fluorophenylsulfonyl)-1-oxa-8-azaspiro[4.5]decan-3-ylamino)-2-hydroxypropoxy)-N-methylbenzenesulfonamide]: the IC50 was 0.0122 µM.
As for `COc1ccc(S(=O)(=O)N2CCC3(CC2)CC(NC[C@H](O)COc2cccc(S(=O)(=O)N(C)C)c2)CO3)cc1C` (stereo partly drawn) [Compound 247, 3-((2S)-2-hydroxy-3-(8-(4-methoxy-3-methylphenylsulfonyl)-1-oxa-8-azaspiro[4.5]decan-3-ylamino)propoxy)-N,N-dimethylbenzenesulfonamide], the IC50 turned out to be 0.0272 µM.
Next, `CNS(=O)(=O)c1cccc(OC[C@@H](O)CNC2COC3(CCN(S(=O)(=O)c4cccc(-c5sc(C)nc5C)c4)CC3)C2)c1` (stereo partly drawn) [Compound 73, 3-((2S)-3-(8-(3-(2,4-dimethylthiazol-5-yl)phenylsulfonyl)-1-oxa-8-azaspiro[4.5]decan-3-ylamino)-2-hydroxypropoxy)-N-methylbenzenesulfonamide]: 0.0221 µM; `CC(=O)NS(=O)(=O)c1cccc(OC[C@@H](O)CNC2COC3(CCN(S(=O)(=O)c4ccc5ccccc5c4)CC3)C2)c1` (stereo partly drawn) [Compound 318, N-(3-((2S)-2-hydroxy-3-(8-(naphthalen-2-ylsulfonyl)-1-oxa-8-azaspiro[4.5]decan-3-ylamino)propoxy)phenylsulfonyl)acetamide]: 2.18 µM.
The value for `CCn1cc(-c2cccc(S(=O)(=O)N3CCC4(CC3)C[C@H](NC[C@H](O)COc3cccc(S(=O)(=O)NC)c3)CO4)c2)cn1` [Compound 282, 3-((S)-3-((S)-8-(3-(1-ethyl-1H-pyrazol-4-yl)phenylsulfonyl)-1-oxa-8-azaspiro[4.5]decan-3-ylamino)-2-hydroxypropoxy)-N-methylbenzenesulfonamide] was 0.0155 µM; that for `CNS(=O)(=O)c1cccc(OC[C@@H](O)CN[C@H]2COC3(CCN(S(=O)(=O)c4cncc(-c5ccc(CN)cc5)c4)CC3)C2)c1` [Compound 375] was 0.0254 µM.
Next, `CNS(=O)(=O)c1cccc(OC[C@@H](O)CN[C@@H]2COC3(CCN(S(=O)(=O)c4cccc(-c5ccc(C6(N)CC6)cc5)c4)CC3)C2)c1` [Compound 446, 3-((S)-3-((S)-8-(4′-(1-aminocyclopropyl)biphenyl-3-ylsulfonyl)-1-oxa-8-azaspiro[4.5]decan-3-ylamino)-2-hydroxypropoxy)-N-methylbenzenesulfonamide]: 0.0119 µM; `CCNS(=O)(=O)c1cccc(OC[C@@H](O)CNC2COC3(CCN(S(=O)(=O)c4cccc(-c5ccc(CN)cc5)c4)CC3)C2)c1` (stereo partly drawn) [Compound 210, 3-((2S)-3-(8-(4′-(aminomethyl)biphenyl-3-ylsulfonyl)-1-oxa-8-azaspiro[4.5]decan-3-ylamino)-2-hydroxypropoxy)-N-ethylbenzenesulfonamide]: 0.0204 µM; `CNS(=O)(=O)c1cccc(OC[C@@H](O)CN[C@H]2COC3(CCN(S(=O)(=O)c4cn(CC(=O)O)c5ccccc5c4=O)CC3)C2)c1` [Compound 544, 2-(3-((R)-3-((S)-2-hydroxy-3-(3-(N-methylsulfamoyl)phenoxy)propylamino)-1-oxa-8-azaspiro[4.5]decan-8-ylsulfonyl)-4-oxoquinolin-1(4H)-yl)acetic acid]: 0.0327 µM.
`CNS(=O)(=O)c1cccc(OC[C@@H](O)CNC2COC3(CCN(S(=O)(=O)c4ccc(-c5ccccc5)cc4)CC3)C2)c1` (stereo partly drawn) [Compound 123, 3-((2S)-3-(8-(biphenyl-4-ylsulfonyl)-1-oxa-8-azaspiro[4.5]decan-3-ylamino)-2-hydroxypropoxy)-N-methylbenzenesulfonamide]: the IC50 worked out at 0.0405 µM.
Next, `CNS(=O)(=O)c1cccc(OC[C@@H](O)CNC2COC3(CCN(S(=O)(=O)c4ccc5c(c4)NCCO5)CC3)C2)c1` (stereo partly drawn) [Compound 355, 3-((2S)-3-(8-(3,4-dihydro-2H-benzo[b][1,4]oxazin-6-ylsulfonyl)-1-oxa-8-azaspiro[4.5]decan-3-ylamino)-2-hydroxypropoxy)-N-methylbenzenesulfonamide]: 0.0172 µM; `Cc1ccc2c(O)c(S(=O)(=O)N3CCC4(CC3)C[C@@H](NC[C@H](O)COc3cccc(S(N)(=O)=O)c3)CO4)cnc2c1` [Compound 542, 3-((S)-2-hydroxy-3-((R)-8-(4-hydroxy-7-methylquinolin-3-ylsulfonyl)-1-oxa-8-azaspiro[4.5]decan-3-ylamino)propoxy)benzenesulfonamide]: 0.0156 µM.
Next, `CNS(=O)(=O)c1cccc(OC[C@@H](O)CNC2COC3(CCN(S(=O)(=O)c4ccc5[nH]ncc5c4)CC3)C2)c1` (stereo partly drawn) [Compound 325, 3-((2S)-3-(8-(1H-indazol-5-ylsulfonyl)-1-oxa-8-azaspiro[4.5]decan-3-ylamino)-2-hydroxypropoxy)-N-methylbenzenesulfonamide]: 0.0427 µM; `CNS(=O)(=O)c1cccc(OC[C@@H](O)CNC2COC3(CCN(S(=O)(=O)c4cccc(-c5ccc(CNCCNC(C)=O)cc5)c4)CC3)C2)c1` (stereo partly drawn) [Compound 348, N-(2-((3′-(3-((S)-2-hydroxy-3-(3-(N-methylsulfamoyl)phenoxy)propylamino)-1-oxa-8-azaspiro[4.5]decan-8-ylsulfonyl)biphenyl-4-yl)methylamino)ethyl)acetamide]: 0.0367 µM; `O=S(=O)(NCCO)c1cccc(OC[C@@H](O)CN[C@H]2COC3(CCN(S(=O)(=O)c4cnc5cc[nH]c5c4)CC3)C2)c1` [Compound 521, 3-((S)-3-((R)-8-(1H-pyrrolo[3,2-b]pyridin-6-ylsulfonyl)-1-oxa-8-azaspiro[4.5]decan-3-ylamino)-2-hydroxypropoxy)-N-(2-hydroxyethyl)benzenesulfonamide]: 0.0983 µM.
The value for `CNS(=O)(=O)c1cccc(OC[C@@H](O)CNC2COC3(CCN(S(=O)(=O)c4ccc(C)cc4)CC3)C2)c1` (stereo partly drawn) [Compound 53, 3-((2S)-2-hydroxy-3-(8-tosyl-1-oxa-8-azaspiro[4.5]decan-3-ylamino)propoxy)-N-methylbenzenesulfonamide] was 0.0218 µM; that for `CNS(=O)(=O)c1cccc(OC[C@@H](O)CNC2COC3(CCN(S(=O)(=O)c4cccc(Cl)c4C)CC3)C2)c1` (stereo partly drawn) [Compound 143, 3-((2S)-3-(8-(3-chloro-2-methylphenylsulfonyl)-1-oxa-8-azaspiro[4.5]decan-3-ylamino)-2-hydroxypropoxy)-N-methylbenzenesulfonamide] was 0.0171 µM; that for `CNS(=O)(=O)c1cccc(OC[C@@H](O)CN[C@H]2COC3(CCN(S(=O)(=O)c4cc(C)cc5c(O)ccnc45)CC3)C2)c1` [Compound 547, 3-((S)-2-hydroxy-3-((R)-8-(4-hydroxy-6-methylquinolin-8-ylsulfonyl)-1-oxa-8-azaspiro[4.5]decan-3-ylamino)propoxy)-N-methylbenzenesulfonamide] was 0.179 µM.
